Holding throughout (assay type): biochemical
For test [1], the target named is T1, recombinant human DAO (diamine oxidase) (Homo sapiens, UniProt P19801).
T1 construct: purchased R&D systems
T1 sequence (P19801 20-751): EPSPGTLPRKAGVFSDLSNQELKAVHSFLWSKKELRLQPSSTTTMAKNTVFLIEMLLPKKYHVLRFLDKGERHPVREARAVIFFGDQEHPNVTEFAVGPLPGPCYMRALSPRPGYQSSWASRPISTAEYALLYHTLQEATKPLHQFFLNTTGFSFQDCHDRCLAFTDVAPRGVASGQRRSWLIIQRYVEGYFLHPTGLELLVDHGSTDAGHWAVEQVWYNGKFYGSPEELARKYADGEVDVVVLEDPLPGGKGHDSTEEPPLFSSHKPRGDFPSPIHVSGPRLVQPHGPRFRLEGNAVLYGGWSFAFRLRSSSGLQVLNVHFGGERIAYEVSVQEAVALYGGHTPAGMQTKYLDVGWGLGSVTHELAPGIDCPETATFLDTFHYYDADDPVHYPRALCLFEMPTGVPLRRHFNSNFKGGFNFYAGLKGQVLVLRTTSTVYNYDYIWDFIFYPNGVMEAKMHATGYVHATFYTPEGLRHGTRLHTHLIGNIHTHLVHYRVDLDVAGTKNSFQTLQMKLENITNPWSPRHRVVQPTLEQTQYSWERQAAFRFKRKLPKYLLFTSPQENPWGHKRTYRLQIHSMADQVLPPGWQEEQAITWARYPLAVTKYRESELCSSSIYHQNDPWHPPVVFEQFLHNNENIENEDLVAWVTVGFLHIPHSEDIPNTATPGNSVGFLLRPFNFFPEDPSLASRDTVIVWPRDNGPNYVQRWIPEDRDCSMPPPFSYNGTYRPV
In words: Activity evaluation on recombinant human DAO (Amplex Red/HRP-coupled assay, 1 mM putrescine substrate). The settings on record: read-out: Inhibitory Activity (IC50, nM) DAO. Summed up: (§1)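 8-pt 1:3 dilution series, final DMSO <1%; 30 min 37 °C preincubation w/ enzyme, 50 mM Na phosphate pH 7.4; + 200 uM Amplex Red, 1 U/mL HRP, substrate (MAO-A tyramine 0.5 mM; MAO-B benzylamine 1 mM; DAO putrescine 1 mM); fluor. rate 544/590 nm, 1-2 h; 4-param IC50.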

Test [2] has as its target T2, recombinant human MAO-A (monoamine oxidase-A) (Homo sapiens, UniProt P21397).
T2 construct: purchased Sigma-Aldrich
T2 sequence (P21397 1-527): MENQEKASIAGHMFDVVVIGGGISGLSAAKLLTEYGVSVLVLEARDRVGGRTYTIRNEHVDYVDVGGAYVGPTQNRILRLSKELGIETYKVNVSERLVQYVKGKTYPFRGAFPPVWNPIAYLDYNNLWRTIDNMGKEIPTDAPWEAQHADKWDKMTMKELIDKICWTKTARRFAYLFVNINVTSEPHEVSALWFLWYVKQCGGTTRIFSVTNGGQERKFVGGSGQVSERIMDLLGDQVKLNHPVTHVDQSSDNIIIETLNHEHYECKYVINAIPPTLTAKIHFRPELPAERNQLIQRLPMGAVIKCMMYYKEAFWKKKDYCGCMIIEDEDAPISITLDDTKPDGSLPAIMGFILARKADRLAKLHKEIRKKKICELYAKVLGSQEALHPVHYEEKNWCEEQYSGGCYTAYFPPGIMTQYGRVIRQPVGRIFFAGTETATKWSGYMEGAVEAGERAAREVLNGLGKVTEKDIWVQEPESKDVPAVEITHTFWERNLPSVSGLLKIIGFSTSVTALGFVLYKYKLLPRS
In words: Activity evaluation on recombinant human MAO-A (Amplex Red/HRP-coupled assay, 0.5 mM tyramine substrate). The settings on record: read-out: Inhibitory Activity (IC50, nM) MAO-A. The gist of the method: as §1

The target in test [3] is T3, recombinant human VAP-1 (Homo sapiens, UniProt Q16853).
T3 construct: purchased R&D systems
T3 sequence (Q16853 1-763): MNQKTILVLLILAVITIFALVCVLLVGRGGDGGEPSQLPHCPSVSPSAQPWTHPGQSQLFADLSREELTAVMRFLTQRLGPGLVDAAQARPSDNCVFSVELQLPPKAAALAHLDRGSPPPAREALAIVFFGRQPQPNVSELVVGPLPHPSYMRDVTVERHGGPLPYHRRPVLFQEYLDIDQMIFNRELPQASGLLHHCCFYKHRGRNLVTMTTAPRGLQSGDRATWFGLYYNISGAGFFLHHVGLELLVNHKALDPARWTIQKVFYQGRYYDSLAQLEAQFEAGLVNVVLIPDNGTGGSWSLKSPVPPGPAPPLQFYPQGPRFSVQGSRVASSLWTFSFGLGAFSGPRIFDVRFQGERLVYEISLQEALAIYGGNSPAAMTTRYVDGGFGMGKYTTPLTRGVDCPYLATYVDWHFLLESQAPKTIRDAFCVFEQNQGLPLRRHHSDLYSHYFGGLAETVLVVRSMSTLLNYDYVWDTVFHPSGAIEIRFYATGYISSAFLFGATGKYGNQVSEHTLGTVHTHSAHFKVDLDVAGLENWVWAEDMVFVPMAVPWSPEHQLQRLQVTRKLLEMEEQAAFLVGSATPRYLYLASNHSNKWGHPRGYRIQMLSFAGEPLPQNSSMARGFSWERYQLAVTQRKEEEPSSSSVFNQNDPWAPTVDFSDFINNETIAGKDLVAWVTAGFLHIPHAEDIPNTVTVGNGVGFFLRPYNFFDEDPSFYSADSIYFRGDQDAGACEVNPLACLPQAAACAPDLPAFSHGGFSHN
In words: Activity evaluation on recombinant human VAP-1 (Amplex Red/HRP-coupled hydrogen peroxide assay, benzylamine substrate). The settings on record: read-out: Inhibitory Activity (IC50, nM) human VAP-1. The gist of the method: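 Hydrogen peroxide from benzylamine (1 mM) oxidation by human recombinant VAP-1 detected via HRP-coupled Amplex Red (200 uM) fluorescence, kinetic over 1–2 h. Enzyme and compound preincubated 30 min at 37 °C, pH 7.4 phosphate; 8-point dose response, signal-rate decrease versus DMSO control fitted to four-parameter logistic for IC50.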

The target of test [4] is T4, recombinant human MAO-B (monoamine oxidase-B) (Homo sapiens, UniProt P27338).
T4 construct: purchased Sigma-Aldrich
T4 sequence (P27338 1-520): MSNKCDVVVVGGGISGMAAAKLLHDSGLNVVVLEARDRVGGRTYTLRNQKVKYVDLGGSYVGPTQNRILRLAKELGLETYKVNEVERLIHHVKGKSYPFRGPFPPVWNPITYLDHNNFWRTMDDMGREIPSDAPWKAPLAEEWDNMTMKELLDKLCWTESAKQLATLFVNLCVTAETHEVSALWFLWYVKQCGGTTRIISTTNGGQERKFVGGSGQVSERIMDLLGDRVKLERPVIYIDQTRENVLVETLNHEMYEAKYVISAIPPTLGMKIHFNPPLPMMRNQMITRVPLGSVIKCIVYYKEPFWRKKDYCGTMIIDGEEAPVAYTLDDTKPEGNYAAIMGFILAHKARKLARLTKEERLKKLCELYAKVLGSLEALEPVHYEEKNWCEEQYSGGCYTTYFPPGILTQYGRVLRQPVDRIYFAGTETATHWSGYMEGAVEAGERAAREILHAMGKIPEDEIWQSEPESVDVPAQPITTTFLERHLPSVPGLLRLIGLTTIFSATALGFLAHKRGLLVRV
In words: Activity evaluation on recombinant human MAO-B (Amplex Red/HRP-coupled assay, 1 mM benzylamine substrate). The settings on record: read-out: Inhibitory Activity (IC50, nM) MAO-B. Summed up: as §1

[5] abbreviates: recombinant human VAP-1, 30 min preincubation at 37° C., 1 mM benzylamine.
Setting [6] is: recombinant human VAP-1, benzylamine substrate.

The IC50 is the concentration that gives 50% inhibition.

Structures can show the parent of a compound that is named as a salt. Where two headings read alike, the source gives them in different places. Bounds are passed on as bounds.

As to `NCC(Cn1ncn(-c2cccc(-c3ccc(N4CCNCC4)cc3)c2)c1=O)=C(F)F` [Example 18, 2-[2-(aminomethyl)-3,3-difluoro-allyl]-4-[3-(4-piperazin-1-ylphenyl)phenyl]-1,2,4-triazol-3-one Ditrifluoroacetate], the IC50 is 13000 nM in test [1] (1 mM putrescine), greater than 100000 nM in test [2] (0.5 mM tyramine), 15 nM in test [3] (setting [5]) and greater than 100000 nM in test [4] (1 mM benzylamine).

Turning to `NCC(Cn1ncn(Cc2ccc(C#Cc3ccc4c(c3)NCCO4)s2)c1=O)=C(F)F` [Example 164, 2-[2-(aminomethyl)-3,3-difluoro-allyl]-4-[[5-[2-(3,4-dihydro-2H-1,4-benzoxazin-6-yl)ethynyl]-2-thienyl]methyl]-1,2,4-triazol-3-one Ditrifluoroacetate], the IC50 in test [1] (1 mM putrescine) was greater than 10000 nM; in test [2] (0.5 mM tyramine), 4000 nM; in test [3] (setting [5]), 2.5 nM; in test [4] (1 mM benzylamine), 34000 nM.

For `NCC(Cn1ncn(Cc2ccc(-c3ccc4c(c3)NC(=O)CO4)s2)c1=O)=C(F)F` [Example 141, 6-[5-[[1-[2-(aminomethyl)-3,3-difluoro-allyl]-5-oxo-1,2,4-triazol-4-yl]methyl]-2-thienyl]-4H-1,4-benzoxazin-3-one Trifluoroacetate], the IC50 in test [1] (1 mM putrescine) amounted to 16000 nM; in test [2] (0.5 mM tyramine), 8100 nM; in test [3] (setting [5]), 0.6 nM; in test [4] (1 mM benzylamine) it was 20000 nM.

With `Cc1cc(-c2ccc(S(=O)(=O)N(C)C)cc2)cnc1-n1cnn(CC(CN)=C(F)F)c1=O` [Example 238, 4-[6-[1-[2-(aminomethyl)-3,3-difluoro-allyl]-5-oxo-1,2,4-triazol-4-yl]-5-methyl-3-pyridyl]-N,N-dimethyl-benzenesulfonamide trifluoroacetate], the IC50 was 310 nM in test [1] (1 mM putrescine substrate), greater than 100000 nM in test [2] (0.5 mM tyramine substrate), 0.14 nM in test [3] (setting [6]) and 1800 nM in test [4] (1 mM benzylamine substrate).

In the case of `CCn1cc(-c2ccc(Cn3cnn(CC(CN)=C(F)F)c3=O)s2)ccc1=O` [Example 122, 5-[5-[[1-[2-(aminomethyl)-3,3-difluoro-allyl]-5-oxo-1,2,4-triazol-4-yl]methyl]-2-thienyl]-1-ethyl-pyridin-2-one Trifluoroacetate], the IC50 is 54000 nM in test [1] (1 mM putrescine), greater than 100000 nM in test [2] (0.5 mM tyramine), 0.4 nM in test [3] (setting [5]) and 25000 nM in test [4] (1 mM benzylamine).

Turning to `CCn1cc(-c2cccc(-n3cnn(CC(CN)=C(F)F)c3=O)n2)cn1` [Example 53, 2-[2-(aminomethyl)-3,3-difluoro-allyl]-4-[6-(1-ethylpyrazol-4-yl)-2-pyridyl]-1,2,4-triazol-3-one Trifluoroacetate], the IC50 is 1710 nM in test [1] (1 mM putrescine), greater than 100000 nM in test [2] (0.5 mM tyramine), 1.3 nM in test [3] (setting [5]) and greater than 100000 nM in test [4] (1 mM benzylamine).

For `CC(=O)Nc1nc2ccc(-c3ccc(Cn4cnn(CC(CN)=C(F)F)c4=O)s3)cc2s1` [Example 131, N-[6-[5-[[1-[2-(aminomethyl)-3,3-difluoro-allyl]-5-oxo-1,2,4-triazol-4-yl]methyl]-2-thienyl]-1,3-benzothiazol-2-yl]acetamide trifluoroacetate], the IC50 was greater than 100000 nM in test [1] (1 mM putrescine), 7800 nM in test [2] (0.5 mM tyramine), 0.4 nM in test [3] (setting [5]) and 12000 nM in test [4] (1 mM benzylamine).

With `NCC(Cn1ncn(Cc2ccccc2-c2ccc3c(c2)OCO3)c1=O)=C(F)F` [Example 282, 2-[2-(aminomethyl)-3,3-difluoro-allyl]-4-[[2-(1,3-benzodioxol-5-yl)phenyl]methyl]-1,2,4-triazol-3-one Trifluoroacetate], the half-inhibitory concentration (IC50) is greater than 100000 nM in test [1] (1 mM putrescine substrate), greater than 100000 nM in test [2] (0.5 mM tyramine substrate), 28 nM in test [3] (setting [6]) and greater than 100000 nM in test [4] (1 mM benzylamine substrate).

In the case of `CN1C(=O)CCc2cc(-c3ccc(-n4cnn(CC(CN)=C(F)F)c4=O)cn3)ccc21` [Example 44, 6-[5-[1-[2-(aminomethyl)-3,3-difluoro-allyl]-5-oxo-1,2,4-triazol-4-yl]-2-pyridyl]-1-methyl-3,4-dihydroquinolin-2-one Trifluoroacetate], the IC50 was 14 nM in test [1] (1 mM putrescine), greater than 100000 nM in test [2] (0.5 mM tyramine), 0.3 nM in test [3] (setting [5]) and 110 nM in test [4] (1 mM benzylamine).

In the case of `Cn1c(-c2ccc(Cn3cnn(CC(CN)=C(F)F)c3=O)s2)cnc1Cl` [Example 120, 2-[2-(aminomethyl)-3,3-difluoro-allyl]-4-[[5-(2-chloro-3-methyl-imidazol-4-yl)-2-thienyl]methyl]-1,2,4-triazol-3-one Trifluoroacetate], the IC50 was greater than 100000 nM in test [1] (1 mM putrescine), greater than 100000 nM in test [2] (0.5 mM tyramine), 6 nM in test [3] (setting [5]) and greater than 100000 nM in test [4] (1 mM benzylamine).

With `NCC(Cn1ncn(CCc2ccc(-c3ccc(N4CCNCC4)cc3)s2)c1=O)=C(F)F` [Example 174, 2-[2-(aminomethyl)-3,3-difluoro-allyl]-4-[2-[5-(4-piperazin-1-ylphenyl)-2-thienyl]ethyl]-1,2,4-triazol-3-one Ditrifluoroacetate], the IC50 was 29 nM in test [1] (1 mM putrescine), greater than 100000 nM in test [2] (0.5 mM tyramine), 1.3 nM in test [3] (setting [5]) and greater than 100000 nM in test [4] (1 mM benzylamine).

The values are drawn from patent US11168073B2, “3,3-difluoroallylamines or salts thereof and pharmaceutical compositions comprising the same” (YUHAN CORPORATION, priority 2018, dated 2021).
